Test results reported in patent US4582700A, “Products and processes” (Mallinckrodt, Inc., priority 1983, dated 1986).

Test: Comparative 5 minute biodistribution of A-E and 201TlCl in rats
Assay type: in vivo, female Sprague-Dawley rats
Details: rat, i.v. 25 uCi/kg
Procedure: The following pharmacological studies were conducted on Complex (A), prepared by the method of Example 1; Complex (B), prepared by the method of Example 2; Complex (C) prepared by the method of Example 4; Complex (D) prepared by the method of Example 6; and Complex (E) prepared by the method of Example 7. Where indicated, Thallium-201 was used for comparative purposes.
The biodistribution of the experimental ^99m Tc(I) complexes in rats was compared with Thallium-201, currently the radionuclide of choice for myocardial perfusion imaging. Complex A was supplied as a vacuum-evaporated preparation and reconstituted with 0.9% Sodium Chloride, Injection, U.S.P. The ^99m Tc(I) complexes and ^201 TlCl solutions were diluted to concentrations of 12.5 uCi/ml with 0.9% Sodium Chloride, Injection, U.S.P. for dosing. Groups of 4-12 female Sprague-Dawley rats with body weights ranging from 180-231 g received single intraveneous injections of 25uCi/kg of Complex A, Complex B, Complex C, Complex D, Complex E, or ^201 TlCl.
Animals were sacrificed 5 minutes after dosing and radioactivity concentrations were determined by gamma scintillation spectroscopy in blood, heart, liver, lungs, kidney and skeletal muscle. As a measurement of selectivity of myocardial uptake, heart/blood, heart/liver and heart/lung tissue ratios were determined.

In the case of `[Cl][201Tl]` [^201 TlCl], the “Mean % Dose/g or ml, Blood” value (5 min, blood) is reported as 0.26 % Dose/g or ml, the “Mean % Dose/g or ml, Heart” value (5 min, heart) is reported as 6.35 % Dose/g or ml and the “Mean % Dose/g or ml, Kidney” value (5 min, kidney) is reported as 6.53 % Dose/g or ml. The “Mean % Dose/g or ml, Liver” value (5 min, liver) was 1.01 % Dose/g or ml, the “Mean % Dose/g or ml, Lung” value (5 min, lung) was 4.69 % Dose/g or ml and the “Mean % Dose/g or ml, Muscle” value (5 min, skeletal muscle) was 0.82 % Dose/g or ml. For the same compound, the “Mean Tissue Ratio Heart/Blood” value (5 min after dosing) was 24.31, the “Mean Tissue Ratio Heart/Liver” value (5 min after dosing) was 6.31 and the “Mean Tissue Ratio Heart/Lung” value (5 min after dosing) was 1.35.
